Values quoted from earlier work in patent US20220162327A1, “ANTI-CCR5 AGENTS AND METHODS OF TREATMENT THAT BLOCK CANCER METASTASIS OR ENHANCE CELL DEATH INDUCED BY DNA DAMAGING CHEMOTHERAPY” (CytoDyn Inc., priority 2019, published 2022).

Columns and labels:
CCR5 [1] = target: T1, CCR5 (Homo sapiens, UniProt P51681); set-up: endogenous in cells; host or cells: CD4+ T cells; conditions: cited from earlier work
[2] = test system: breast cancer tumor model; conditions: cited from earlier work
CCR5 [3] = target: T1, CCR5; conditions: activated human T cells, cited from earlier work
CCL5 = conditions: human colorectal cancer liver metastasis; cited from earlier work

T1 sequence (P51681 whole entry): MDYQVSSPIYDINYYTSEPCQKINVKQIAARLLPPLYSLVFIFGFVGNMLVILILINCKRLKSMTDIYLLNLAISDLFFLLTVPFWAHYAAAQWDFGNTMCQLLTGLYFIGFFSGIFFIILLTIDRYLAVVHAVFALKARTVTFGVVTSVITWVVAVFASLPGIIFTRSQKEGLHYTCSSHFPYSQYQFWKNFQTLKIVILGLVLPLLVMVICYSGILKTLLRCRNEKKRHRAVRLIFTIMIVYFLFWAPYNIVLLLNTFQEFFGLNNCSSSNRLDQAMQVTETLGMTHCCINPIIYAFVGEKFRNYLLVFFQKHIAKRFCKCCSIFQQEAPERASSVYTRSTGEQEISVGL

Compound	cell killing mediated by DNA-damaging chemotherapeutic agents (CCR5 [1])	lung metastases [2]	production of TNF-α and IFN-γ (CCR5 [3]; high doses)	CCR5 and CCR2 internalization induced by CCL5 and CCL2 (CCR5 [3])	T cell chemotactic activities toward cognate ligands (CCR5 [3])	effect on tumor-associated macrophages and tumor cells (CCL5)
COC[C@@H](c1ccc(C(F)(F)F)cc1)N1CCN(C2(C)CCN(C(=O)c3c(C)ncnc3C)CC2)C[C@@H]1C [vicriviroc]	dramatically enhanced cell killing					
maraviroc	dramatically enhanced cell killing	effectively blocked lung metastases	tends to decrease production of TNF-α and IFN-γ	can block CCR5 and CCR2 internalization processes induced by CCL5 and CCL2	inhibit T cell chemotactic activities	led to repolarization of tumor-associated macrophages and tumor cell death
